The values that follow come from patent publication US9932570B2 (priority 2015, dated 2018).

Molecules are shown by their SMILES. Non-standard residues stand in square brackets, D forms with d. Residues, ends and D or L forms follow the SMILES beside them. *: point of attachment. AFC = O=c1cc(C(F)(F)F)c2ccc(N*)cc2o1; AMC = Cc1cc(=O)oc2cc(N*)ccc12

The data set has as its system plasma proteases.
With `CC(=O)N[C@@H](CCCNC(=N)N)C(=O)N[C@@H](CCCNC(=N)N)C(=O)N[C@@H](CCCCN)C(=O)N[C@@H](CCCCN)C(=O)N[C@H](C(=O)N[C@@H](Cc1ccc(O)cc1)C(=O)N1CCC[C@H]1C(=O)Nc1ccc2c(C)cc(=O)oc2c1)C(C)C` [LBL 10079] (Ac-RRKKVYP-{AMC}), the “Cleavage / fluorescence in plasma in the absence of LF” value (from here on “Cleavage / fluorescence in plasma”) is reported as “dramatic increase in fluorescence” and the “Specificity for LF” value is “non-specifically cleaved by plasma proteases”.

`CC(=O)N[C@@H](CCCNC(=N)N)C(=O)N[C@H](CCCNC(=N)N)C(=O)N[C@H](CCCCN)C(=O)N[C@H](CCCCN)C(=O)N[C@H](C(=O)N[C@@H](Cc1ccc(O)cc1)C(=O)N1CCC[C@H]1C(=O)Nc1ccc2c(C)cc(=O)oc2c1)C(C)C` [LBL 10081] (Ac-R[dR][dK][dK]VYP-{AMC}): the “Cleavage / fluorescence in plasma” value was “minimal increase in hydrolysis”, the “Hydrolysis in plasma without LF” value is “minimal increase in hydrolysis” and the “Specificity for LF” value is recorded as “specific for LF”.

Take `CC(=O)N[C@H](CCCNC(=N)N)C(=O)N[C@H](CCCNC(=N)N)C(=O)N[C@H](CCCCN)C(=O)N[C@H](CCCCN)C(=O)N[C@H](C(=O)N[C@@H](Cc1ccc(O)cc1)C(=O)N1CCC[C@H]1C(=O)Nc1ccc2c(C)cc(=O)oc2c1)C(C)C` [LBL 10097] (Ac-[dR][dR][dK][dK]VYP-{AMC}): the “Cleavage / fluorescence in plasma” value is “minimal increase in hydrolysis”, the “Hydrolysis in plasma without LF” value was “minimal increase in hydrolysis” and the “Specificity for LF” value is “specific for LF”.

Consider `CC(=O)N[C@@H](CCCNC(=N)N)C(=O)N[C@H](CCCNC(=N)N)C(=O)N[C@H](CCCCN)C(=O)N[C@H](CCCCN)C(=O)N[C@H](C(=O)N[C@@H](Cc1ccc(O)cc1)C(=O)N1CCC[C@H]1C(=O)Nc1ccc2c(C(F)(F)F)cc(=O)oc2c1)C(C)C` [LBL 10108] (Ac-R[dR][dK][dK]VYP-{AFC}), for which the “Cleavage / fluorescence in plasma” value is “neither peptide was cleaved”.
